Test results as given in patent US20130158049A1, “7-AZAINDOLE INHIBITORS OF CRAC” (Hoffmann-La Roche Inc., priority 2011, published 2013).

Test system: Jurkat IL-2 Production
Experiment: Jurkat IL-2 Production Assay
Assay type: cell-based
Settings: Homo sapiens; Jurkat cell (ATCC); PHA 5 μg/mL with 1% FBS, or PMA/Ionomycin with 30% FBS (table does not say which); incubation 18 h~20 h
Procedure: Jurkat IL-2 Production Assay
Cell: Jurkat cell (ATCC) was grown in RPMI 1640 with 10% FBS and 1% penicillin/streptomycin. The cell density was kept at 1.2˜1.8×10^6/mL in culture flask before seeding into culture plate, and the cell density in the plate was 0.5×10^6/[…]/well.
Culture media: RPMI 1640 with 1% FBS or 30% FBS for high serum assay.
Test compound: serial dilution was done in 100% DMSO, and intermediate dilution was done with RPMI 1640 medium with 1% FBS. The DMSO final concentration in culture well was 0.25%.
Stimulant: PHA (Sigma#L9017-10MG) was used for the assay with 1% FBS in culture medium, and added after 10 minutes exposure of cell to compound/DMSO. The PHA final concentration in culture well was 5 μg/mL. PMA (Sigma# P-8139 5MG)/Ionomycin (Sigma# I0634-5MG) was used for the assay with 30% FBS in culture medium, and added at same time point as the 1% FBS culture assay. The final concentration of PMA was 50 ng/mL, and Ionomycin final concentration was 500 ng/mL.
Incubation: at 37° C. with 5% CO2 and 95% humidity for 18 h˜20 h.
IC50: IC50 was calculated with the data analysis software XLfit4, General Pharmacology model 251.

| IC50 | SMILES |
| --- | --- |
| 588 nM | COC(=O)c1ccc(-c2cnc3[nH]c(-c4c(F)cccc4F)cc3c2)c(C)c1 [Example 1, 4-[2-(2,6-Difluoro-phenyl)-1H-pyrrolo[2,3-b]pyridin-5-yl]-3-methyl-benzoic acid methyl ester] |
| 150 nM | COc1ccc(-c2cnc3[nH]c(-c4c(F)cccc4F)cc3c2)c(OC)c1 [Example 2, 2-(2,6-Difluoro-phenyl)-5-(2,4-dimethoxy-phenyl)-1H-pyrrolo[2,3-b]pyridine] |
| 124 nM | Cc1cc(S(=O)(=O)N(C)C)ccc1-c1cnc2[nH]c(-c3c(F)cccc3F)cc2c1 [Example 3, 4-[2-(2,6-Difluoro-phenyl)-1H-pyrrolo[2,3-b]pyridin-5-yl]-3,N,N-trimethyl-benzenesulfonamide] |
| 134 nM | CCn1nc(-c2cccnc2)cc1-c1cnc2[nH]c(-c3c(F)cccc3F)cc2c1 [Example 4, 2-(2,6-Difluoro-phenyl)-5-(2-ethyl-5-pyridin-3-yl-2H-pyrazol-3-yl)-1H-pyrrolo[2,3-b]pyridine] |
| 54 nM | CCn1nc(C(F)(F)F)cc1-c1cnc2[nH]c(-c3c(F)cccc3F)cc2c1 [Example 7, 2-(2,6-Difluoro-phenyl)-5-(2-ethyl-5-trifluoromethyl-2H-pyrazol-3-yl)-1H-pyrrolo[2,3-b]pyridine] |
| 102 nM | Cc1sc(-c2ncco2)nc1-c1cnc2[nH]c(-c3c(F)cccc3F)cc2c1 [Example 8, 2-(2,6-Difluoro-phenyl)-5-(5-methyl-2-oxazol-2-yl-thiazol-4-yl)-1H-pyrrolo[2,3-b]pyridine] |
| 242 nM | CNC(=O)c1cc(C)c(-c2cnc3[nH]c(-c4c(F)cccc4F)cc3c2)cn1 [Example 11, 5-[2-(2,6-Difluoro-phenyl)-1H-pyrrolo[2,3-b]pyridin-5-yl]-4-methyl-pyridine-2-carboxylic acid methylamide] |
| 997 nM | Cc1cc(C(=O)NCCO)ncc1-c1cnc2[nH]c(-c3c(F)cccc3F)cc2c1 [Example 12, 5-[2-(2,6-Difluoro-phenyl)-1H-pyrrolo[2,3-b]pyridin-5-yl]-4-methyl-pyridine-2-carboxylic acid (2-hydroxy-ethyl)-amide] |
| 36 nM | Cc1sc(-c2cnccn2)nc1-c1cnc2[nH]c(-c3c(F)cccc3F)cc2c1 [Example 14, 2-(2,6-Difluoro-phenyl)-5-(5-methyl-2-pyrazin-2-yl-thiazol-4-yl)-1H-pyrrolo[2,3-b]pyridine] |
| 72 nM | Cc1cc(S(C)(=O)=O)ncc1-c1cnc2[nH]c(-c3c(F)cccc3Cl)cc2c1 [Example 20, 2-(2-Chloro-6-fluoro-phenyl)-5-(6-methanesulfonyl-4-methyl-pyridin-3-yl)-1H-pyrrolo[2,3-b]pyridine] |

More lines, now with the values behind:

| SMILES | IC50 |
| --- | --- |
| Cc1sc(-c2cccnc2)nc1-c1cnc2[nH]c(-c3c(F)cccc3F)cc2c1 [Example 5, 2-(2,6-Difluoro-phenyl)-5-(5-methyl-2-pyridin-3-yl-thiazol-4-yl)-1H-pyrrolo[2,3-b]pyridine] | 90 nM |
| Cn1nc(C(F)(F)F)cc1-c1cnc2[nH]c(-c3c(F)cccc3F)cc2c1 [Example 6, 2-(2,6-Difluoro-phenyl)-5-(2-methyl-5-trifluoromethyl-2H-pyrazol-3-yl)-1H-pyrrolo[2,3-b]pyridine] | 113 nM |
| CCn1nc(-c2cccnc2)nc1-c1cnc2[nH]c(-c3c(F)cccc3F)cc2c1 [Example 9, 2-(2,6-Difluoro-phenyl)-5-(2-ethyl-5-pyridin-3-yl-2H-[1,2,4]-triazol-3-yl)-1H-pyrrolo[2,3-b]pyridine] | 56 nM |
| Cn1nc(-c2cccnc2)nc1-c1cnc2[nH]c(-c3c(F)cccc3F)cc2c1 [Example 10, 2-(2,6-Difluoro-phenyl)-5-(2-methyl-5-pyridin-3-yl-2H-[1,2,4]triazol-3-yl)-1H-pyrrolo[2,3-b]pyridine] | 106 nM |
| CCc1sc(-c2cccnc2)nc1-c1cnc2[nH]c(-c3c(F)cccc3F)cc2c1 [Example 13, 2-(2,6-Difluoro-phenyl)-5-(5-ethyl-2-pyridin-3-yl-thiazol-4-yl)-1H-pyrrolo[2,3-b]pyridine] | 15 nM |
| Cn1nc(C(F)(F)F)cc1-c1cnc2[nH]c(-c3c(F)cccc3Cl)cc2c1 [Example 15, 2-(2-Chloro-6-fluoro-phenyl)-5-(2-methyl-5-trifluoromethyl-2H-pyrazol-3-yl)-1H-pyrrolo[2,3-b]pyridine] | 53 nM |
| Cc1cc(S(=O)(=O)N(C)C)ccc1-c1cnc2[nH]c(-c3c(F)cccc3Cl)cc2c1 [Example 16, 4-[2-(2-Chloro-6-fluoro-phenyl)-1H-pyrrolo[2,3-b]pyridin-5-yl]-3,N,N-trimethyl-benzenesulfonamide] | 99 nM |
| CCn1nc(-c2cnccn2)cc1-c1cnc2[nH]c(-c3c(F)cccc3Cl)cc2c1 [Example 17, 2-(2-Chloro-6-fluoro-phenyl)-5-(2-ethyl-5-pyrazin-2-yl-2H-pyrazol-3-yl)-1H-pyrrolo[2,3-b]pyridine] | 15 nM |
| Cc1sc(-c2cnccn2)nc1-c1cnc2[nH]c(-c3c(F)cccc3Cl)cc2c1 [Example 18, 2-(2-Chloro-6-fluoro-phenyl)-5-(5-methyl-2-pyrazin-2-yl-thiazol-4-yl)-1H-pyrrolo[2,3-b]pyridine] | 39 nM |
| COc1cc(C#N)ccc1-c1cnc2[nH]c(-c3c(F)cccc3Cl)cc2c1 [Example 19, 4-[2-(2-Chloro-6-fluoro-phenyl)-1H-pyrrolo[2,3-b]pyridin-5-yl]-3-methoxy-benzonitrile] | 35 nM |
| CCn1nc(-c2cnccn2)cc1-c1cnc2[nH]c(-c3ccncc3C)cc2c1 [Example 21, 5-(2-Ethyl-5-pyrazin-2-yl-2H-pyrazol-3-yl)-2-(3-methyl-pyridin-4-yl)-1H-pyrrolo[2,3-b]pyridine] | 158 nM |
| CCn1nc(-c2cccnc2)cc1-c1cnc2[nH]c(-c3ccncc3C)cc2c1 [Example 22, 5-(1-Ethyl-3-(pyridin-3-yl)-1H-pyrazol-5-yl)-2-(3-methylpyridin-4-yl)-1H-pyrrolo[2,3-b]pyridine] | 163 nM |
| CCn1nc(C(F)(F)F)cc1-c1cnc2[nH]c(-c3ccncc3C)cc2c1 [Example 23, 5-(1-ethyl-3-(trifluoromethyl)-1H-pyrazol-5-yl)-2-(3-methylpyridin-4-yl)-1H-pyrrolo[2,3-b]pyridine] | 145 nM |
| Cc1cc(S(C)(=O)=O)ncc1-c1cnc2[nH]c(-c3ccncc3C)cc2c1 [Example 24, 5-(4-Methyl-6-(methylsulfonyl)pyridin-3-yl)-2-(3-methylpyridin-4-yl)-1H-pyrrolo[2,3-b]pyridine] | 248 nM |
| CCn1nc(-c2cnccn2)cc1-c1cnc2[nH]c(-c3cnccc3C)cc2c1 [Example 26, 5-(2-Ethyl-5-pyrazin-2-yl-2H-pyrazol-3-yl)-2-(4-methyl-pyridin-3-yl)-1H-pyrrolo[2,3-b]pyridine] | 428 nM |
| Cc1cc(S(C)(=O)=O)ncc1-c1cnc2[nH]c(-c3cnccc3C)cc2c1 [Example 27, 5-(4-Methyl-6-(methylsulfonyl)pyridin-3-yl)-2-(4-methylpyridin-3-yl)-1H-pyrrolo[2,3-b]pyridine] | 438 nM |
| CCn1nc(-c2cccnc2)cc1-c1cnc2[nH]c(-c3cnccc3Cl)cc2c1 [Example 28, 2-(4-chloropyridin-3-yl)-5-(1-ethyl-3-(pyridin-3-yl)-1H-pyrazol-5-yl)-1H-pyrrolo[2,3-b]pyridine] | 185 nM |
| Cc1cc(S(C)(=O)=O)ncc1-c1cnc2[nH]c(-c3cnccc3Cl)cc2c1 [Example 29, 2-(4-Chloropyridin-3-yl)-5-(4-methyl-6-(methylsulfonyl)pyridin-3-yl)-1H-pyrrolo[2,3-b]pyridine] | 275 nM |
| CCn1nc(-c2cccnc2)cc1-c1cnc2[nH]c(-c3c(C)noc3C)cc2c1 [Example 30, 2-(3,5-Dimethyl-isoxazol-4-yl)-5-(2-ethyl-5-pyridin-3-yl-2H-pyrazol-3-yl)-1H-pyrrolo[2,3-b]pyridine] | 441 nM |
| Cc1cc(S(C)(=O)=O)ncc1-c1cnc2[nH]c(C3CCCCC3)cc2c1 [Example 31, 2-cyclohexyl-5-(4-methyl-6-(methylsulfonyl)pyridin-3-yl)-1H-pyrrolo[2,3-b]pyridine] | 107 nM |
| CCn1nc(-c2cccnc2)cc1-c1cnc2[nH]c(C3CCCCC3)cc2c1 [Example 32, 2-Cyclohexyl-5-(1-ethyl-3-(pyridin-3-yl)-1H-pyrazol-5-yl)-1H-pyrrolo[2,3-b]pyridine] | 108 nM |
| CCn1nc(-c2cnccn2)cc1-c1cnc2[nH]c(C3CCCCC3)cc2c1 [Example 33, 2-Cyclohexyl-5-(1-ethyl-3-(pyrazin-2-yl)-1H-pyrazol-5-yl)-1H-pyrrolo[2,3-b]pyridine] | 111 nM |
